# Assay results published in ChEMBL document CHEMBL5233284, “Design, synthesis and anticancer evaluation of 3-methyl-1H-indazole derivatives as novel selective bromodomain-containing protein 4 inhibitors” (Bioorg Med Chem, 2021).
# Calls of active or inactive are those of the source. The calls are words filed in the database; no cut-off is given here.
# Tests used:
# [1] = molecular target: T1, Bromodomain-containing protein 4 (Homo sapiens, UniProt O60885); conditions: dose 200.0 µM, time 30-60 min
# Description: Binding affinity to BRD4-BD1 (unknown origin) assessed as change in melting temperature at 200 uM incubated for 30 to 60 mins by SYPRO orange dye based thermal shift assay
# CWR22R [2] = experiment: Antiproliferative activity against human 22Rv1 cells assessed as inhibition of cell growth at 10 uM incubated for 96 to 120 hrs by celltiter glo assay relative to control; format: functional; conditions: for inhibition at 10 µM: Homo sapiens, 22Rv1, time 96-120 hrs
# [3] = molecular target: T1, Bromodomain-containing protein 4; experiment: Inhibition of BRD4-BD1 (unknown origin) using C-terminal biotinylated tetra-acetylated histone H4 peptide as substrate incubated for 2.5 hrs by alphascreen assay
# MV4-11 [4] = experiment: Antiproliferative activity against human MV4-11 cells assessed as inhibition of cell growth incubated for 96 to 120 hrs by celltiter glo assay; format: functional, cell-based
# MV4-11 [5] = experiment: Antiproliferative activity against human MV4-11 cells assessed as inhibition of cell growth at 10 uM incubated for 96 to 120 hrs by celltiter glo assay relative to control; format: functional; conditions: for inhibition at 10 µM: Homo sapiens, MV4-11, time 96-120 hrs
# CWR22R [6] = experiment: Antiproliferative activity against human 22Rv1 cells assessed as inhibition of cell growth incubated for 96 to 120 hrs by celltiter glo assay; format: functional, cell-based
# [7] = molecular target: Histone acetyltransferase p300 (Homo sapiens) (UniProt Q09472); experiment: Binding affinity to EP300 (unknown origin) assessed as change in melting temperature at 200 uM incubated for 30 to 60 mins by SYPRO orange dye based thermal shift assay; conditions: time 30-60 min
# [8] = molecular target: Histone acetyltransferase KAT2B (Homo sapiens) (UniProt Q92831); experiment: Binding affinity to PCAF (unknown origin) assessed as change in melting temperature at 200 uM incubated for 30 to 60 mins by SYPRO orange dye based thermal shift assay; conditions: time 30-60 min
# [9] = molecular target: Bromodomain-containing protein 3 (Homo sapiens) (UniProt Q15059); experiment: Binding affinity to BRD3 BD1 (unknown origin) assessed as change in melting temperature at 200 uM incubated for 30 to 60 mins by SYPRO orange dye based thermal shift assay; conditions: time 30-60 min
# [10] = molecular target: Bromodomain adjacent to zinc finger domain protein 2B (Homo sapiens) (UniProt Q9UIF8); experiment: Binding affinity to BAZ2B (unknown origin) assessed as change in melting temperature at 200 uM incubated for 30 to 60 mins by SYPRO orange dye based thermal shift assay; conditions: time 30-60 min
# [11] = molecular target: Chromatin remodeling regulator CECR2 (Homo sapiens) (UniProt Q9BXF3); experiment: Binding affinity to CECR2 (unknown origin) assessed as change in melting temperature at 200 uM incubated for 30 to 60 mins by SYPRO orange dye based thermal shift assay; conditions: time 30-60 min
# [12] = molecular target: Bromodomain-containing protein 2 (Homo sapiens) (UniProt P25440); experiment: Binding affinity to BRD2 BD1 (unknown origin) assessed as change in melting temperature at 200 uM incubated for 30 to 60 mins by SYPRO orange dye based thermal shift assay; conditions: time 30-60 min
# Sequence of Bromodomain-containing protein 2 (Homo sapiens) (P25440 whole entry, looked up): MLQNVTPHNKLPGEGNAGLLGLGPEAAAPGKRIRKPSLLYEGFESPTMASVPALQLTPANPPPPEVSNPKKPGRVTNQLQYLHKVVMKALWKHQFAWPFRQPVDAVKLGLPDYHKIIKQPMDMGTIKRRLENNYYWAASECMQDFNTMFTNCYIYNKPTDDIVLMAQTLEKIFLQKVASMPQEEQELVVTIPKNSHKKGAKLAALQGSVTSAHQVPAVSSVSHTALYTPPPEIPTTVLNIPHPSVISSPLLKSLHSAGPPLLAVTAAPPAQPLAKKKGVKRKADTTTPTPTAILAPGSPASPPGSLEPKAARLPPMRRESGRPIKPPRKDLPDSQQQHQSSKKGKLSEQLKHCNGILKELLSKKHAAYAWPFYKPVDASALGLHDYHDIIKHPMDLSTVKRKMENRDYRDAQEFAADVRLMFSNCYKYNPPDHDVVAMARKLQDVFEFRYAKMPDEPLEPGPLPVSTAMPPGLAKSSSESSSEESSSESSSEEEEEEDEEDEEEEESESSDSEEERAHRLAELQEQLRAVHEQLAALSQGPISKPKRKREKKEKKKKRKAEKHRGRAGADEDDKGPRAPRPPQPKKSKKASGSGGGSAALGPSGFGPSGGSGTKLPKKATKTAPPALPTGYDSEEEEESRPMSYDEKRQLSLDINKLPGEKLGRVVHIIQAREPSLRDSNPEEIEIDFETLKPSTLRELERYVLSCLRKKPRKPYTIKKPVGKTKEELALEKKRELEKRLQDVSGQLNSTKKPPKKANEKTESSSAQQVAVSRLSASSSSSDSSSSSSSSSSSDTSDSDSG
# [13] = molecular target: SWI/SNF-related matrix-associated actin-dependent regulator of chromatin subfamily A member 2 (Homo sapiens) (UniProt P51531); experiment: Binding affinity to SMARCA2A (unknown origin) assessed as change in melting temperature at 200 uM incubated for 30 to 60 mins by SYPRO orange dye based thermal shift assay; conditions: time 30-60 min
# Sequence of SWI/SNF-related matrix-associated actin-dependent regulator of chromatin subfamily A member 2 (Homo sapiens) (P51531 whole entry): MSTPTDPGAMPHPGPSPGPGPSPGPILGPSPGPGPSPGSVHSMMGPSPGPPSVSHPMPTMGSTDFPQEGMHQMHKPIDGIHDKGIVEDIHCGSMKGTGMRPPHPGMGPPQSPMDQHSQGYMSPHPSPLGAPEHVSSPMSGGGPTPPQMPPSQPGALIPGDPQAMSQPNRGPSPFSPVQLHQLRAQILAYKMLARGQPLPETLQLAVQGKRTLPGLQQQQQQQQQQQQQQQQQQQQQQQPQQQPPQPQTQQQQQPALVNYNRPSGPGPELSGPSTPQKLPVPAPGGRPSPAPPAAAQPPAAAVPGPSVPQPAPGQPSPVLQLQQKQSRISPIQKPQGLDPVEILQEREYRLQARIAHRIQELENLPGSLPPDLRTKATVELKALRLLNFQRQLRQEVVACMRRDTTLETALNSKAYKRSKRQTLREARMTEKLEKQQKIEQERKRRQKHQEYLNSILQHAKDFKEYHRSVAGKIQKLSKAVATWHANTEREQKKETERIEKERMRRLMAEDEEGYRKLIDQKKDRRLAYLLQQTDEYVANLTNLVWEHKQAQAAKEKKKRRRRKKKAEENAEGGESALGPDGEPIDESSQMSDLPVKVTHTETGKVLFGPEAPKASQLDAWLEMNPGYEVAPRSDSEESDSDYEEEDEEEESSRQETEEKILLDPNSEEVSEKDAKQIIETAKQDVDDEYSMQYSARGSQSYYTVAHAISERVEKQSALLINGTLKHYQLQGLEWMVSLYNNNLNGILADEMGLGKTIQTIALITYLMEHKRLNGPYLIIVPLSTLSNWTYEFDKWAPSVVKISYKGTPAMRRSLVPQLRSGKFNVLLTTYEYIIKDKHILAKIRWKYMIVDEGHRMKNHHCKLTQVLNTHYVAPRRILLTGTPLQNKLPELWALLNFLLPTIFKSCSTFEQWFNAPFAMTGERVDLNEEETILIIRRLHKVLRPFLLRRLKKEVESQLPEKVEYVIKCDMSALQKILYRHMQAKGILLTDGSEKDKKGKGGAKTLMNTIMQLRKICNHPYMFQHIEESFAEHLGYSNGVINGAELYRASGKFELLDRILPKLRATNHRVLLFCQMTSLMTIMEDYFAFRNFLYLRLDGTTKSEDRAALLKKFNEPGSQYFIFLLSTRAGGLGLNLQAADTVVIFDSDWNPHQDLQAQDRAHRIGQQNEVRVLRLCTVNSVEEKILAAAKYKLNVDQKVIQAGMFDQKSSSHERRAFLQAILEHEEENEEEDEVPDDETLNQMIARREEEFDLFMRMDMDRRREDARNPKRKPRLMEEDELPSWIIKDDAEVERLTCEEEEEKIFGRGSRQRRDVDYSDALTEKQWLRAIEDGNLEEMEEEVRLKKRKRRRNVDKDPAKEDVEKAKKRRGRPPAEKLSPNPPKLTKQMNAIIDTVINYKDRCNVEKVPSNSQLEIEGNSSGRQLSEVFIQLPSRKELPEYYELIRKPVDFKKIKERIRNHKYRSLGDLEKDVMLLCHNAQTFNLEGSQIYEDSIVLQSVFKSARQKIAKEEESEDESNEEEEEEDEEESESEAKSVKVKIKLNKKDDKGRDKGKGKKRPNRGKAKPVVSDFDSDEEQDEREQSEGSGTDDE
# [14] = molecular target: CREB-binding protein (Homo sapiens) (UniProt Q92793); experiment: Binding affinity to CBP (unknown origin) assessed as change in melting temperature at 200 uM incubated for 30 to 60 mins by SYPRO orange dye based thermal shift assay; conditions: time 30-60 min
# Sequence of CREB-binding protein (Homo sapiens) (Q92793 2-2442 limits assumed): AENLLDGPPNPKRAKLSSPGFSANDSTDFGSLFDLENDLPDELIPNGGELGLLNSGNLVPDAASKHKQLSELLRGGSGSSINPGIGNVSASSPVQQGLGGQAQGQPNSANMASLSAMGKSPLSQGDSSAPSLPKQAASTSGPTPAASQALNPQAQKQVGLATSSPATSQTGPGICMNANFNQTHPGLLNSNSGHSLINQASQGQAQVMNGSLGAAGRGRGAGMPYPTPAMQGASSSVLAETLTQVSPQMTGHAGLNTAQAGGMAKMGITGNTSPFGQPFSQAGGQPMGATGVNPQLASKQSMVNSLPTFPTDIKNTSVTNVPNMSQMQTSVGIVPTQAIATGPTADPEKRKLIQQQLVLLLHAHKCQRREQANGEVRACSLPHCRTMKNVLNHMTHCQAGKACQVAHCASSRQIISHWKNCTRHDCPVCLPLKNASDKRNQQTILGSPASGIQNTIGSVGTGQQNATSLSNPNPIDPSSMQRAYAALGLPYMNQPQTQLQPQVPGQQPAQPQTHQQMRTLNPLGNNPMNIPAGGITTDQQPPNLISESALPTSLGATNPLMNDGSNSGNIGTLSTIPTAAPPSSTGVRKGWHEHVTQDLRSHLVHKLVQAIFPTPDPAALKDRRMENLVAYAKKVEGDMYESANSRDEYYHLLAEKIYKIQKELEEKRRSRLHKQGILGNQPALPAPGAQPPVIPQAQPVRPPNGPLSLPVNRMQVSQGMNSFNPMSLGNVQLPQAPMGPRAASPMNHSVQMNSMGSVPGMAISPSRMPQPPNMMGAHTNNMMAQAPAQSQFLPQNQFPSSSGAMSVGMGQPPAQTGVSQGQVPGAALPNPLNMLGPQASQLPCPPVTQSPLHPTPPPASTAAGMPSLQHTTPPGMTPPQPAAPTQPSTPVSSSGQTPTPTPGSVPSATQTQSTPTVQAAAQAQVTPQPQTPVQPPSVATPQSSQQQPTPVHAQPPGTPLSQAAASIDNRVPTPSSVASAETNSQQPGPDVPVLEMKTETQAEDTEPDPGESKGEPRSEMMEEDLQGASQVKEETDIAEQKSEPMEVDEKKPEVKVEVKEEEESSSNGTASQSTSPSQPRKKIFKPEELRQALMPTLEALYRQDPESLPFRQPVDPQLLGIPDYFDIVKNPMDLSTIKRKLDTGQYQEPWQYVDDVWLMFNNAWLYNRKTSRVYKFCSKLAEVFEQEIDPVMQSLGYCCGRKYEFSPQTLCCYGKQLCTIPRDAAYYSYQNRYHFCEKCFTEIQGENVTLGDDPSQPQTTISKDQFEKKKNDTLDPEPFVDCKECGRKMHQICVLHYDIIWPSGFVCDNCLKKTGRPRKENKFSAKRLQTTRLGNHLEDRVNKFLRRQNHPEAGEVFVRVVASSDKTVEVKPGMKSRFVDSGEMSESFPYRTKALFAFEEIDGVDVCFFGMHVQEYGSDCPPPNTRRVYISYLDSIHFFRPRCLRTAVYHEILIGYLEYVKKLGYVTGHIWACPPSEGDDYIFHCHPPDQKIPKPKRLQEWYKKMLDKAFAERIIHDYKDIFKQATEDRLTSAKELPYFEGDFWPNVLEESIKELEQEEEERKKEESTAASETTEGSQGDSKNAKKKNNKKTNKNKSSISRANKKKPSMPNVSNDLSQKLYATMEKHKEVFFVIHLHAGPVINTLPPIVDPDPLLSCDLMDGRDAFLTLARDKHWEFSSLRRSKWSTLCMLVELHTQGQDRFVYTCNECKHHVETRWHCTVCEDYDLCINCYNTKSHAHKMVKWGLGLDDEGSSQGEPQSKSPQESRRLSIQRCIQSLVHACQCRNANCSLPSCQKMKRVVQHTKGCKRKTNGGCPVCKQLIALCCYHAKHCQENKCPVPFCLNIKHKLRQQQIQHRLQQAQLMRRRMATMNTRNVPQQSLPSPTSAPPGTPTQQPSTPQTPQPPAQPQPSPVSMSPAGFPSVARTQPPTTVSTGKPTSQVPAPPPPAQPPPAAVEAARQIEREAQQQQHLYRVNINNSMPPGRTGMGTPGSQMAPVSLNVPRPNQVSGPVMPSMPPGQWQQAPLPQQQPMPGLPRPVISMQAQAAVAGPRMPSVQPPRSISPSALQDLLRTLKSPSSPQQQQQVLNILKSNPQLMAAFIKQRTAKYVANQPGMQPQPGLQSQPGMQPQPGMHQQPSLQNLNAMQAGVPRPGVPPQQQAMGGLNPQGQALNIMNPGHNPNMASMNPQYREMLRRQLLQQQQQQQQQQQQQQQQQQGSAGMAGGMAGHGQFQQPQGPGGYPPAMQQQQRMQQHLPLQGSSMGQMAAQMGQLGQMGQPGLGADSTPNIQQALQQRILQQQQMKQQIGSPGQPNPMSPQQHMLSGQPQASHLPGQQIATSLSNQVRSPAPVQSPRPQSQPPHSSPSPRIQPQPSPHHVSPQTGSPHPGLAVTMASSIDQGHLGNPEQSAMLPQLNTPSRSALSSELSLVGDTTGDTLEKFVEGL
# [15] = molecular target: T1, Bromodomain-containing protein 4; experiment: Inhibition of BRD4 BD1 in human MV4-11 cells assessed as inhibition of c-myc protein expression at 20 uM incubated for 48 hrs by Western blot analysis; format: cell-based
# [16] = molecular target: T1, Bromodomain-containing protein 4; experiment: Inhibition of BRD4-BD1 (unknown origin) at 60 uM relative to control
SMILES,ΔTm [1],inhibition at 10 µM (CWR22R [2]),IC50 [3],IC50 (MV4-11 [4]),inhibition at 10 µM (MV4-11 [5]),other results
Cc1n[nH]c2ccc(-c3nc4cnc(N5CCN(C)CC5)cn4c3Nc3ccc(Cl)cc3)cc12,5 °C,8.11%,6.35 µM,3.51 µM,83.7%,–
Cc1n[nH]c2ccc(-c3nc4cnc(N5CCOCC5)cn4c3Cc3ccc(Cl)cc3)cc12,6.6 °C,–,–,–,0%,–
Cc1n[nH]c2ccc(-c3nc4cnc(N5CCN(C)CC5)cn4c3Nc3ccc(Br)cc3)cc12,7.2 °C,11.7%,6.94 µM,2.6 µM,83%,–
Cc1n[nH]c2ccc(-c3nc4cnc(N5CCOCC5)cn4c3Nc3ccccc3)cc12,6.1 °C,–,3.79 µM,–,0%,IC50 (CWR22R [6]): 38.2 µM
Cc1n[nH]c2ccc(-c3nc4cnc(N5CCN(C)CC5)cn4c3Nc3ccc(Cl)cc3Cl)cc12,2 °C,9.53%,16 µM,4.72 µM,78.8%,–
Cc1n[nH]c2ccc(-c3nc4cnc(N5CCN(C)CC5)cn4c3Nc3ccc(I)cc3)cc12,4.5 °C,–,–,–,0%,–
Cc1n[nH]c2ccc(-c3nc4cnc(N5CCN(C)CC5)cn4c3Nc3cccc(Cl)c3)cc12,6.3 °C,–,–,–,0%,–
Cc1n[nH]c2ccc(-c3nc4cnc(N5CCC(C)CC5)cn4c3Nc3ccc(Cl)cc3)cc12,2.1 °C,12.6%,20.4 µM,–,27.9%,–
Cc1n[nH]c2ccc(-c3nc4cnc(N5CCOCC5)cn4c3Nc3ccc(Cl)cc3)cc12,7.5 °C,13.8%,3.55 µM,3.7 µM,84%,ΔTm [7]: -1.5 °C; ΔTm [8]: -1.5 °C; ΔTm [9]: 2.3 °C; ΔTm [10]: -2 °C; IC50 (CWR22R [6]): 15.8 µM; ΔTm [11]: 0 °C; ΔTm [12]: 1 °C; ΔTm [13]: 0 °C; ΔTm [14]: -1 °C; inhibition [15]: Active
Cc1n[nH]c2ccc(-c3nc4cnc(N5CCN(C)CC5)cn4c3Nc3cccc(F)c3)cc12,6.9 °C,5.41%,14.3 µM,–,18.5%,–
Cc1n[nH]c2ccc(-c3nc4cnc(N5CCN(C)CC5)cn4c3Nc3ccc(Br)cc3Cl)cc12,2.7 °C,–,–,9.22 µM,70.5%,–
COc1ccc(Nc2c(-c3ccc4[nH]nc(C)c4c3)nc3cnc(N4CCN(C)CC4)cn23)cc1OC,6.9 °C,0%,12.7 µM,–,6.27%,–
Cc1n[nH]c2ccc(-c3nc4cnc(N5CCN(C)CC5)cn4c3Nc3ccccc3Cl)cc12,3.6 °C,–,–,–,58.1%,–
Cc1n[nH]c2ccc(-c3nc4cnc(N5CCN(C)CC5)cn4c3Nc3ccccc3F)cc12,6.9 °C,0%,9.89 µM,–,0%,–
COc1cc(-c2nc3cnccn3c2Nc2ccccc2)ccc1O,–,–,–,–,–,inhibition [16]: 40%
COc1ccc(Nc2c(-c3ccc4[nH]nc(C)c4c3)nc3cnc(N4CCOCC4)cn23)cc1,6.9 °C,1.2%,5.15 µM,–,11.5%,–
Cc1n[nH]c2ccc(-c3nc4cnc(N5CCN(C)CC5)cn4c3Nc3ccc(F)c(Cl)c3)cc12,6 °C,0.82%,5.81 µM,2.85 µM,84.1%,IC50 (CWR22R [6]): 14 µM
Cc1ccc(C)c(Nc2c(-c3ccc4[nH]nc(C)c4c3)nc3cnc(N4CCN(C)CC4)cn23)c1,5.3 °C,–,–,–,0%,–
Cc1n[nH]c2ccc(-c3nc4cnc(N5CCN(C)CC5)cn4c3Nc3ccc(F)cc3)cc12,6.5 °C,–,4.17 µM,32.3 µM,0%,IC50 (CWR22R [6]): 33.6 µM
Cc1n[nH]c2ccc(-c3nc4cnc(N5CCN(C)CC5)cn4c3Nc3ccccc3)cc12,5 °C,–,6.1 µM,–,0%,–
Cc1sc2c(c1C)C(c1ccc(Cl)cc1)=N[C@@H](CC(=O)OC(C)(C)C)c1nnc(C)n1-2,–,–,–,0.017 µM,–,inhibition (INH) (CWR22R [2]; time 96-120 hrs): 82.88%; IC50 (CWR22R [6]): 0.033 µM; inhibition (INH) (MV4-11 [5]; time 96-120 hrs): 90.01%; ΔTm [13]: -0.5 °C
Cc1n[nH]c2ccc(-c3nc4cnc(N5CCN(C)CC5)cn4c3Nc3cc(Cl)ccc3Cl)cc12,3.9 °C,3.8%,3.61 µM,–,23.8%,–
COc1ccc(Nc2c(-c3ccc4[nH]nc(C)c4c3)nc3cnc(N4CCN(C)CC4)cn23)cc1,5.3 °C,0%,20.5 µM,–,3.32%,–
Cc1n[nH]c2ccc(-c3nc4cnc(N5CCN(C)CC5)cn4c3Nc3ccc(F)cc3Br)cc12,5.1 °C,4.41%,7.48 µM,3.83 µM,82.4%,–
Cc1cc(Br)ccc1Nc1c(-c2ccc3[nH]nc(C)c3c2)nc2cnc(N3CCN(C)CC3)cn12,3.7 °C,–,–,10.8 µM,59.4%,IC50 (CWR22R [6]): 6.51 µM
Cc1n[nH]c2ccc(-c3nc4cnc(N5CCOCC5)cn4c3Nc3ccc(Br)cc3)cc12,6.9 °C,10.1%,4.69 µM,–,45.9%,–
Cc1n[nH]c2ccc(-c3nc4cnc(N5CCN(C)CC5)cn4c3Nc3ccc(Cl)cc3F)cc12,4.5 °C,–,6.78 µM,10.3 µM,0%,IC50 (CWR22R [6]): 14.1 µM
